Patent publication US12331042B2, “Compounds suitable for the treatment and prophylaxis of muscle wasting and other conditions” (priority 2019, dated 2025)
“Also recorded” adds a separate entry of the source.

Columns and labels:
[1] = test system: Mrps5 (mitochondrial ribosomal protein 5); experiment: Proteomic analysis of diaphragm tissue, CHF mice; assay type: in vivo, Mus musculus; settings: CHF mice with vs without compound feeding, P=0.02
Description: To analyze the molecular mechanisms underlying the observed physiological changes and benefits of MyoMed-946-treated mice suffering from CHF, comparative quantitative proteomic analysis as well as Western blot analysis of diaphragm tissue from sham, CHF, and CHF+MyoMed-946-treated mice were performed.
Mass spectrometry-based proteomic analysis was performed at the DZHK Core Facility, Bad Nauheim, Germany. Obtained MS raw data were processed by MaxQuant (1.6.0.1) using the Andromeda search engine and the Uniprot database for Mus musculus (as of 20 Apr. 2017). At a false discovery rate of 1% (both peptide and protein levels), >2600 protein groups were identified. The reductive dimethylation protocol employed (see Boersema et al., Nat Protoc, 2009, 4, 484-494) yielded pairwise relative comparative quantitation (ratios) between proteins from CHF+MyoMed-946, CHF, and sham conditions, which were statistically queried for significant differences using standard statistical tests. Several proteins were identified to be statistically different (e.g. TNNT3, Timm9, Ccdc5, Adi1, Ptges3, and Ndufa3).

[2] = test system: C2C12 myotubes (myocytes); experiment: Cytotoxicity, LDH release in cultured myotubes (myocytes); assay type: cell-based, Murine; settings: increasing concentrations, 24 h
Description: (§1) Murine C2C12 myoblasts (CRL-1772, ATCC) were cultured in DMEM (Lonza; Basel, Switzerland) supplemented with 10% fetal calf serum (FCS; Gibco®Invitrogen, Carlsbad, CA). For induction of differentiation into myotubes, subconfluent cultures were switched to DMEM containing 2% horse serum (Sigma-Aldrich; Seelze, Germany). Myotubes were subsequently pre-treated for 2 h with increasing compound concentrations (0.1 to 10 μmol/L, dissolved in DMSO) or with an equal volume of DMSO before treatment for 24 h with 10 μmol/L dexamethasone (DEX; Sigma-Aldrich; Seelze, Germany). Myotube diameter was then evaluated by image analysis software (Analysis 3.0, Olympus Soft Imaging Solutions GmbH, Munster, Germany). To determine cytotoxicity of selected compounds, myoblasts or myotubes were incubated with increasing concentrations for 24 h. Subsequently, the concentration of lactate dehydrogenase (LDH) activity was quantified in the cell culture supernatant as a measure for cell destruction as described in Bellocci et al., Anal Biochem, 2008, 374, 48-55.

[3] = test system: MAFbx, MuRF1, CARP, BAX, eIF2B-delta expression; experiment: Western blot analysis of TA muscle, MCT mice; assay type: in vivo
Text: The Western blot analyses consisted of frozen TA muscle samples being homogenized in RIPA buffer (50 mmol/L Tris, 150 mmol/L sodium chloride, 1 mmol/L EDTA, 1% NP-40, 0.25% sodium-deoxycholate, 0.1% SDS, 1% Triton X-100; pH 7.4) or relax buffer (90 mmol/L HEPES, 126 mmol/L potassium chloride, 1 mmol/L MgCl, 50 mmol/L EGTA, 8 mmol/L ATP, 10 mmol/1 Creatinephosphate; pH 7.4) containing a protease inhibitor mix (Inhibitor mix M, Serva, Heidelberg, Germany), sonicated, and centrifuged at 16,000×g for 5 min. Protein concentration of the supernatant was determined (BCA assay, Pierce, Bonn, Germany) and aliquots (5-20 μg) were separated by SDS-polyacrylamide gel electrophoresis. Proteins were transferred to a polyvinylidene fluoride membrane (PVDF) and incubated overnight at 4° C. with the following primary antibodies: MAFbx ( 1/2000, Eurogentec, Seraing, Belgium), MuRF1 ( 1/1000, Myomedix Ltd., Neckargemünd, Germany), CARP ( 1/500, Myomedix Ltd., Neckargemünd, Germany), BAX ( 1/1000; Abcam, Cambridge, UK), and eIF2B-delta ( 1/200; Santa Cruz Biotechnolgy, Santa Cruz, USA). Membranes were subsequently incubated with a horseradish peroxidase-conjugated secondary antibody and specific bands visualized by enzymatic chemiluminescence (Super Signal West Pico, Thermo Fisher Scientific Inc., Bonn, Germany) and densitometry quantified using a 1D scan software package (Scanalytics Inc., Rockville, USA). Blots were then normalized to the loading control GAPDH ( 1/30000; HyTest Ltd, Turku, Finland). All data are presented as fold change relative to sham.

[4] = test system: monocrotaline (MCT)-treated C57BL/6 mice; experiment: Pulmonary hypertension mouse model, test series 1; assay type: in vivo; settings: MCT+compound chow vs MCT
Description: The animal experiments were approved by the Regierungspräsidium Karlsruhe (35-9185.81/G-141/13) and the Regierungspräsidium Leipzig (TVV 40/16). Three groups of mice were included in this study, including: 1) saline-treated (sham; n=20); 2) monocrotaline (MCT)-treated fed normal chow (MCT; n=27); and 3) MCT-treated fed MuRF1 inhibitor chow (MCT+compound; n=27). Briefly, C57BL/6 mice (aged 8 weeks) were subcutaneously injected weekly with either MCT (600 mg/kg) or a matched volume of saline for 6 weeks, a time period where MCT is known to induce cardiac cachexia due to pulmonary hypertension and subsequent RV dysfunction rather than anorexia, as described by Ahn et al., PLoS One, 2013, 8:e62702. Mice were exposed to identical conditions under a 12:12 h light/dark cycle with food and water provided ad libitum. The MCT+compound group started receiving the inhibitor chow 1 week prior to the MCT injections, whereas the sham and MCT groups were fed an identical chow but without the addition of the selected compound. Body weight was recorded every week for each mouse. […]
For histological evaluation, paraffin-embedded TA muscle sections (3 μm) were stained with H&E and fiber cross-sectional area (CSA) and then evaluated by imaging software (Analysis 3.0, Olympus Soft Imaging Solutions GmbH, Munster, Germany). […]

Murine C2C12 myoblasts = experiment: Cytotoxicity, LDH release in cultured myoblasts; assay type: cell-based; settings: increasing concentrations, 24 h
Description: as §1

[5] = Storage stability at room temperature (NMR, LC-MS); assay type: physicochemical; settings: several months storage at room temperature; confirmed via NMR and LC-MS
Text: [2-(2-Furylmethylcarbamoylamino)-2-oxo-ethyl]

SMILES: Cc1cc(=O)oc2cc(OCc3ccc(C(=O)OCC(=O)NC(=O)NCc4ccco4)cc3)ccc12 [MyoMed-946, [2-(2-furylmethylcarbamoylamino)-2-oxo-ethyl] 4-[(4-methyl-2-oxo-chromen-7-yl)oxymethyl]benzoate]
- Mrps5 protein level (proteomics) [1]: significantly up-regulated
- toxicity (LDH release) [2]: low toxicity
- increase in CARP expression ([3]; MCT+compound vs MCT): attenuated; also recorded: abolished
- increased protein expression of MuRF1 ([3]; MCT+compound vs MCT): attenuated; also recorded: prevented
- protein expression of MAFBx ([3]; MCT+compound vs MCT): No changes are detected; also recorded: no effects were observed
- expression of eIF2B (delta subunit) ([3]; MCT+compound vs MCT, confirmed by immunoblotting): upregulation
- expression of BAX ([3]; MCT+compound, upregulated in MCT vs sham): normalized
- right ventricle hypertrophy ([4]; 6 weeks MCT): attenuated; also recorded: attenuates the development of right ventricle hypertrophy
- loss of skeletal muscle mass (EDL, soleus, TA wet weight, TA fiber CSA) ([4]; most obvious effect in TA muscle): protected
- toxicity (LDH release) (Murine C2C12 myoblasts): low toxicity
- decay on storage [5]: no trace of decay
